Laboratory results taken from patent US12336982B2 (RODEO THERAPEUTICS CORPORATION, priority 2018, dated 2025).
pIC50: −log10 of the molar value.

Target: T1, recombinant 15-PGDH (Homo sapiens, UniProt P15428)
T1 sequence (P15428 1-266): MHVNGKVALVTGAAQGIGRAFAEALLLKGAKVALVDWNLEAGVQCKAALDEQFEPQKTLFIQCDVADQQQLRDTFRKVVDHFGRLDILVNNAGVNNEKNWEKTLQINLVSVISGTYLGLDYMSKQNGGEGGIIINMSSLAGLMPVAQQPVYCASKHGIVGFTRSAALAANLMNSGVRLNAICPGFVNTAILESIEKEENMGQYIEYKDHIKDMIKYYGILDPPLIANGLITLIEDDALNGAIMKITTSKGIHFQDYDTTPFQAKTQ
Assay type: biochemical
Conditions: recombinant human 15-PGDH, in vitro; read-out: PDGH Assay-IC50
Text: The Recombinant 15-PGDH is human unless otherwise specified.

Row | Structure (SMILES) | pIC50
1 | COCC[S+]([O-])c1sc2nc(-c3cnc4nncn4c3)cc(-c3ccccc3)c2c1N (centres unmarked) [Example 358] | ≤ 8.00
2 | Cn1cncc(-c2cc(C3CCC3)c3c(N)c([S+]([O-])C4CCC4)sc3n2)c1=O (centres unmarked) [Example 409] | > 8.60
3 | COCCC[S+]([O-])c1sc2nc(-c3ccc(=O)n(C)c3)cc(-c3ccccc3)c2c1N (centres unmarked) [Example 161] | > 8.60
4 | Nc1c([S@@+]([O-])C2CCC2)sc2nc(-c3cnc(NCCO)nc3)cc(-c3ccccn3)c12 [Example 95] | ≤ 8.00
5 | COCCn1ccc(-c2cc(-c3cnc4nn(C)cc4c3)nc3sc([S+]([O-])CCOC)c(N)c23)n1 (centres unmarked) [Example 386] | > 8.60
6 | COCCC[S@@+]([O-])c1sc2nc(-c3cncnc3)cc(-c3cnccn3)c2c1N [Example 234] | ≤ 8.00
7 | COCCC[S@@+]([O-])c1sc2nc(-c3cncnc3)cc(-c3ccnc(C)c3)c2c1N [Example 170] | > 8.60
8 | COCCC[S+]([O-])c1sc2nc(-c3cnc4c(cnn4C)c3)cc(-c3cccnc3)c2c1N (centres unmarked) [Example 74] | > 8.60
9 | COCCC[S@@+]([O-])c1sc2nc(-c3cccnc3)nc(-c3ccccc3)c2c1N [Example 54] | > 8.60
10 | COCC[S@@+]([O-])c1sc2nc(-c3cnc4ncn(C)c4c3)cc(C3CCC3)c2c1N [Example 366] | > 8.60
11 | Nc1c([S+]([O-])C2CCC2)sc2nc(-c3cnc(C(=O)NCCO)nc3)cc(-c3ccccc3)c12 (centres unmarked) [Example 129] | > 8.60
12 | COCC[S+]([O-])c1sc2nc(-c3cn[nH]c(=O)c3)cc(-c3ccccc3)c2c1N (centres unmarked) [Example 394] | > 8.60
13 | COCCC[S+]([O-])c1sc2nc(-c3cnc(NCCO)nc3)cc(-c3ccc(F)cc3)c2c1N (centres unmarked) [Example 71] | 8.00 to 8.60
14 | Nc1c([S+]([O-])C2CCC2)sc2nc(-c3cccnc3)cc(-c3cccnc3)c12 (centres unmarked) [Example 50] | > 8.60
15 | Nc1c([S+]([O-])C2CCC2)sc2nc(-c3cnn(CCO)c3)cc(-c3ccccc3)c12 (centres unmarked) [Example 272] | > 8.60
16 | COCC[S@@+]([O-])c1sc2nc(-c3cncnc3)cc(C(F)(F)F)c2c1N [Example 198] | > 8.60
17 | COCC[S+]([O-])c1sc2nc(-c3cnn(C)c(=O)c3)cc(C3CCC3)c2c1N (centres unmarked) [Example 396] | > 8.60
18 | CC(=O)N1CCC(c2cc(-c3ccc(F)cc3)c3c(N)c([S+]([O-])C4CCC4)sc3n2)CC1 (centres unmarked) [Example 59] | ≤ 8.00
19 | COCC[S+]([O-])c1sc2nc(-c3cnc4nn(C)cc4c3)cc(-c3ccccc3)c2c1N (centres unmarked) [Example 124] | > 8.60

Row | Structure (SMILES) | pIC50
20 | Cn1cc2cc(-c3cc(C4CC4)c4c(N)c([S+]([O-])C5CCC5)sc4n3)cnc2n1 (centres unmarked) [Example 286] | > 8.60
21 | Cn1cc2cc(-c3cc(C(F)(F)F)c4c(N)c([S@+]([O-])C5CCC5)sc4n3)cnc2n1 [Example 423] | > 8.60
22 | Cn1ccc(-c2cc(-c3cnc4nn(C)cc4c3)nc3sc([S+]([O-])C4CCC4)c(N)c23)n1 (centres unmarked) [Example 341] | > 8.60
23 | COCCC[S@@+]([O-])c1sc2nc(-c3cncnc3)cc(-c3ncccn3)c2c1N [Example 111] | > 8.60
24 | Cn1nccc1-c1cc(-c2cnc3c(=O)n(C)ccc3c2)nc2sc([S+]([O-])C3CCC3)c(N)c12 (centres unmarked) [Example 216] | > 8.60
25 | COC(=O)Nc1ccc(-c2cc(-c3ccnn3C)c3c(N)c([S+]([O-])C4CCC4)sc3n2)cn1 (centres unmarked) [Example 392] | > 8.60
26 | COCC[S+]([O-])c1sc2nc(-c3cnc(N)nc3)cc(-c3ccccc3)c2c1N (centres unmarked) [Example 73] | > 8.60
27 | Cn1cc2cc(-c3cc(C(F)(F)F)c4c(N)c([S@@+]([O-])C5CCC5)sc4n3)cnc2n1 [Example 422] | ≤ 8.00
28 | CNc1ncc(-c2cc(-c3ncccn3)c3c(N)c([S+]([O-])C4CCC4)sc3n2)cn1 (centres unmarked) [Example 329] | > 8.60
29 | Nc1c([S+]([O-])C2CCC2)sc2nc(-c3cncnc3)cc(C(F)(F)F)c12 (centres unmarked) [Example 204] | > 8.60
30 | Nc1c([S+]([O-])C2CCC2)sc2nc(-c3cnc(NCCO)nc3)cc(-c3ccccc3F)c12 (centres unmarked) [Example 152] | > 8.60
31 | Nc1c([S+]([O-])C2CCC2)sc2nc(-c3cnc(N4CC(O)C4)nc3)cc(-c3ccccc3)c12 (centres unmarked) [Example 248] | > 8.60
32 | COCC[S+]([O-])c1sc2nc(-c3cnc(N)nc3)cc(C(F)(F)F)c2c1N (centres unmarked) [Example 132] | > 8.60
33 | Cn1nccc1-c1cc(-c2cnc3c(c2)nnn3C)nc2sc([S@@+]([O-])C3CCC3)c(N)c12 [Example 327] | ≤ 8.00
34 | COCC[S+]([O-])c1sc2nc(-c3cnc4c(c3)CN(C)C4=O)cc(C3CCC3)c2c1N (centres unmarked) [Example 385] | > 8.60
35 | Nc1c([S@@+]([O-])C2CCC2)sc2nc(-c3cnc(NCCO)nc3)cc(-c3ncccc3F)c12 [Example 182] | ≤ 8.00
36 | Nc1c([S@+]([O-])C2CCC2)sc2nc(-c3cnc(NCCO)nc3)cc(-c3ncccc3F)c12 [Example 181] | > 8.60
37 | COCC[S+]([O-])c1sc2nc(-c3ccc(NC(C)=O)nc3)cc(-c3ccnn3C)c2c1N (centres unmarked) [Example 393] | 8.00 to 8.60

The remaining lines, values ahead:

Row | pIC50 | Structure (SMILES)
38 | > 8.60 | COCC[S+]([O-])c1sc2nc(-c3cnc4nn(C)nc4c3)cc(-c3ccnn3C)c2c1N (centres unmarked) [Example 380]
39 | ≤ 8.00 | COCC[S@+]([O-])c1sc2nc(-c3cnc4nn(C)cc4c3)cc(-c3ccnn3C)c2c1N [Example 336]
40 | > 8.60 | COCC[S@@+]([O-])c1sc2nc(-c3cncnc3)cc(C3CCC3)c2c1N [Example 252]
41 | > 8.60 | Cn1nccc1-c1cc(-c2cnc3c(c2)nnn3C)nc2sc([S@+]([O-])C3CCC3)c(N)c12 [Example 326]
42 | > 8.60 | Cn1nc2cc(-c3cc(-c4ccnn4C)c4c(N)c([S+]([O-])C5CCC5)sc4n3)cnc2n1 (centres unmarked) [Example 378]
43 | > 8.60 | Nc1c([S+]([O-])C2CCC2)sc2nc(-c3cnc(NCCO)nc3)cc(-c3cncc(F)c3)c12 (centres unmarked) [Example 115]
44 | 8.00 to 8.60 | COCC[S+]([O-])c1sc2nc(-c3ccc(N)nc3)cc(C(F)(F)F)c2c1N (centres unmarked) [Example 135]
45 | 8.00 to 8.60 | Cn1nccc1-c1cc(-c2ccc3c(=O)[nH]ccc3c2)nc2sc([S+]([O-])C3CCC3)c(N)c12 (centres unmarked) [Example 316]
46 | > 8.60 | COCC[S+]([O-])c1sc2nc(-c3cnc4c(c3)ncn4C)cc(C3CCC3)c2c1N (centres unmarked) [Example 373]
47 | 8.00 to 8.60 | COCCC[S+]([O-])c1sc2nc(-c3cnc(C)nc3)cc(C(F)(F)F)c2c1N (centres unmarked) [Example 136]
48 | > 8.60 | Nc1c([S+]([O-])C2CCC2)sc2nc(-c3cncnc3)cc(-c3ncccn3)c12 (centres unmarked) [Example 98]
49 | > 8.60 | Nc1c([S+]([O-])C2CCC2)sc2nc(-c3cncnc3)cc(-c3ccno3)c12 (centres unmarked) [Example 311]
50 | > 8.60 | COCCC[S+]([O-])c1sc2nc(-c3cnc(NCCO)nc3)cc(-c3ccccc3)c2c1N (centres unmarked) [Example 125]
51 | > 8.60 | Nc1c([S@@+]([O-])C2CCC2)sc2nc(-c3ccc(NCCO)nc3)cc(-c3ccccn3)c12 [Example 96]
52 | 8.00 to 8.60 | COCCC[S+]([O-])c1sc2nc(-c3cnc(N4CCOCC4)nc3)cc(C(F)(F)F)c2c1N (centres unmarked) [Example 425]
53 | > 8.60 | COCCC[S+]([O-])c1sc2nc(-c3cncnc3)cc(C(F)(F)F)c2c1N (centres unmarked) [Example 131]
54 | > 8.60 | Cn1cc(-c2cc(-c3ccc(OCCO)cc3)nc3sc([S+]([O-])C4CCC4)c(N)c23)cn1 (centres unmarked) [Example 413]
55 | > 8.60 | Nc1c([S@+]([O-])C2CCC2)sc2nc(-c3cnc(NCCOCCO)nc3)cc(-c3ccccc3)c12 [Example 184]
56 | > 8.60 | COCCNc1ncc(-c2cc(-c3ncccn3)c3c(N)c([S+]([O-])C4CCC4)sc3n2)cn1 (centres unmarked) [Example 232]
57 | ≤ 8.00 | Cn1nccc1-c1cc(-c2cnc(O)nc2)nc2sc([S@@+]([O-])C3CCC3)c(N)c12 [Example 225]
58 | ≤ 8.00 | COCC[S@+]([O-])c1sc2nc(-c3cncnc3)cc(C3CCC3)c2c1N [Example 253]
59 | > 8.60 | Cn1cc(-c2cc(C3CC3)c3c(N)c([S+]([O-])C4CCC4)sc3n2)cn1 (centres unmarked) [Example 277]
60 | > 8.60 | COCC[S@@+]([O-])c1sc2nc(-c3cnc(N)nc3)cc(-c3ccccc3)c2c1N [Example 87]
61 | ≤ 8.00 | Nc1c([S+]([O-])C2CCC2)sc2nc(-c3ccnn3C3CC3)cc(-c3cncnc3)c12 (centres unmarked) [Example 416]
62 | > 8.60 | Nc1c([S+]([O-])C2CCC2)sc2nc(-c3cncnc3)cc(C3CCC3)c12 (centres unmarked) [Example 255]
